Measured values reported in PMC4727781, “Tanzawaic Acids, a Chemically Novel Set of Bacterial Conjugation Inhibitors” (PLoS ONE, 2016).
Read-outs that look alike come from different tables or passages of the source.

Assays:
[1] = test system: IncW plasmid R388 conjugation; assay: plate-conjugation assay, R388; type: cell-based, E. coli; conditions: for COIN activity on R388 conjugation (CF): 1 mM
Experimental: (§1) For the plate-mating procedure, a 200 μl mixture of equal volumes of donor and recipient cultures previously washed, both in stationary phase, was centrifuged and resuspended in 15 μl LB-broth. 5 μl of this mixture were placed on top of 96-well microtiter plate wells containing 150 μl LB-agar (± COINs) and conjugation was allowed to proceed, in general, for 1 h at 37°C. The temperature-sensitive IncH plasmid drR27 was allowed to conjugate for 2 h at 25°C [35]. Bacteria were then resuspended in 150 μl M9 broth and corresponding dilutions were plated on selective media. CF was calculated as the number of transconjugant cells per donor, whereas MF was calculated as the number of cells receiving the mobilizable plasmid per donor. Since this type of frequency data were log-normally distributed, means are calculated using decimal logarithms of data.

[2] = test system: superoxide anion production; conditions: cited from earlier work
[3] = test system: R388 conjugation (R388 derivative pJC01); assay: fluorescence-based HTC assay; type: cell-based, E. coli; conditions: for IC50: Escherichia coli, read-out: COIN-IC50
[4] = test system: lung carcinoma cells A549; assay: cell culture cytotoxicity assay, A549; type: cell-based; conditions: Homo sapiens, mean of three independent experiments, read-out: Toxic-IC50 A549
Experimental: (§2) Cell culture cytotoxicity assays were performed as described using human foreskin fibroblasts ATCC SCRC-1041 [38], lung carcinoma cells A549 [39], colorectal carcinoma cells HCT-116 [40], pancreatic adenocarcinoma cells PNS1 [41] or glioblastoma multiforme cells T98G [42]. Antibacterial activity was determined using a conventional microtiter broth-dilution technique for two reference strains, S. aureus CECT 794 and M. smegmatis DSMZ 43756. Antifungal activity was measured using the reference method antifungal broth dilution susceptibility test (National Committee for Clinical Laboratory Standars) against two species: A. nidulans (Microorganisms Collection of Biomar Microbial Technologies) and C. albicans CECT 1394.

[5] = test system: colorectal carcinoma cells HCT-116; assay: cell culture cytotoxicity assay, HCT-116; type: cell-based; conditions: Homo sapiens, mean of three independent experiments, read-out: Toxic-IC50 HCT-116
Experimental: as §2

[6] = test system: PSN1 pancreatic adenocarcinoma cells; assay: cell culture cytotoxicity assay, PSN1; type: cell-based; conditions: Homo sapiens, mean of three independent experiments, read-out: Toxic-IC50 PSN1
Experimental: as §2

[7] = test system: glioblastoma multiforme cells T98G; assay: cell culture cytotoxicity assay, T98G; type: cell-based; conditions: Homo sapiens, mean of three independent experiments, read-out: Toxic-IC50 T98G
Experimental: as §2

[8] = test system: human foreskin fibroblasts ATCC SCRC-1041; assay: cell culture cytotoxicity assay, fibroblasts; type: cell-based; conditions: Fibroblast, mean of three independent experiments, read-out: Toxic-IC50 Fibroblasts
Experimental: as §2

S. aureus CECT 794 = assay: antibacterial activity, microtiter broth-dilution, S. aureus; type: cell-based; conditions: Staphylococcus aureus, CECT794, mean of three independent experiments, read-out: Toxic-IC90 Saur
Experimental: as §2

M. smegmatis DSMZ 43756 = assay: antibacterial activity, microtiter broth-dilution, M. smegmatis; type: cell-based, Mycobacterium smegmatis; conditions: Mycolicibacterium smegmatis, DSMZ43756, mean of three independent experiments, read-out: Toxic-IC90 Msme
Experimental: as §2

A. nidulans = assay: antifungal broth dilution susceptibility test, A. nidulans; type: cell-based; conditions: Aspergillus nidulans, mean of three independent experiments, read-out: Toxic-IC90 Anid
Experimental: as §2

C. albicans CECT 1394 = assay: antifungal broth dilution susceptibility test, C. albicans; type: cell-based; conditions: Candida albicans, CECT1394, mean of three independent experiments, read-out: Toxic-IC90 Calb
Experimental: as §2

[9] = test system: bacterial and fungal strains; assay: antibacterial and antifungal activities (summary statement); type: cell-based; conditions: summary of Table 1; read-out: toxic-IC90 values, antibacterial and antifungal activities
Experimental: as §2

Magnaporthe oryzae = conditions: read-out: toxic-IC50, inhibition of conidial germination; cited from earlier work
Brevibacillus brevis = test system: Brevibacillus brevis; parameters: method as in PMID 24605144; conditions: at a concentration of 185 μM; cited from earlier work
Mucor miehei = test system: Mucor miehei; parameters: method as in PMID 24605144; conditions: at a concentration of 185 μM; cited from earlier work
Paecilomyces variotii = test system: Paecilomyces variotii; parameters: method as in PMID 24605144; conditions: at a concentration of 185 μM; cited from earlier work
HeLaS3 cells = test system: HeLaS3 cells; parameters: method as in PMID 24605144; conditions: at a concentration of 185 μM; cited from earlier work
Botrytis cinerea = test system: Botrytis cinerea; parameters: method as in PMID 24605144; conditions: at comparable concentrations; cited from earlier work
Phytophthora infestans = conditions: at comparable concentrations; cited from earlier work
[10] = test system: IncW plasmid R388 (derivative pSU2007::Tnlux) conjugation; conditions: COIN threshold; cited from earlier work
[11] = test system: IncFII plasmid R100-1 conjugation; assay: plate-conjugation assay, R100-1; type: cell-based, E. coli; conditions: 0.4 mM
Experimental: as §1

IncN plasmid conjugation = assay: plate-conjugation assay, IncN plasmids; type: cell-based, E. coli; conditions: 0.4 mM
Experimental: as §1

IncP plasmid conjugation = assay: plate-conjugation assay, IncP plasmids; type: cell-based, E. coli; conditions: 0.4 mM
Experimental: as §1

mobilization of CloDF13 = assay: mobilization by plate-conjugation assay, CloDF13; type: cell-based, E. coli; conditions: 0.4 mM; helper plasmid R388, pOX38 or R100-1
Experimental: as §1

mobilization of ColE1 = assay: mobilization by plate-conjugation assay, ColE1; type: cell-based, E. coli; conditions: 0.4 mM
Experimental: as §1

mobilization of RSF1010 = assay: mobilization by plate-conjugation assay, RSF1010; type: cell-based, E. coli; conditions: 0.4 mM; helper plasmid pRL443
Experimental: as §1

Klebsiella pneumoniae = test system: Klebsiella pneumoniae; parameters: method as in PMID 26055397; conditions: cited from earlier work
Bacillus cereus = test system: Bacillus cereus; parameters: method as in PMID 26055397; conditions: cited from earlier work
Proteus mirabilis = test system: Proteus mirabilis; parameters: method as in PMID 26055397; conditions: cited from earlier work
Enterococcus faecalis = test system: Enterococcus faecalis; parameters: method as in PMID 26055397; conditions: cited from earlier work
C. albicans = test system: C. albicans; parameters: method as in PMID 26055397; conditions: cited from earlier work
K562 = test system: K562; parameters: method as in PMID 26055397; conditions: at 100 μM; cited from earlier work
U937 = test system: U937; parameters: method as in PMID 26055397; conditions: at 100 μM; cited from earlier work
Jurkat = test system: Jurkat; parameters: method as in PMID 26055397; conditions: at 100 μM; cited from earlier work
Raji = test system: Raji; parameters: method as in PMID 26055397; conditions: at 100 μM; cited from earlier work
[12] = test system: R388 conjugation (R388 derivative pJC01); parameters: method as in PMID 26330514; conditions: read-out: COIN-IC50; cited from earlier work

SMILES | inhibition of superoxide anion production [2] | IC50 [4] [µM] | IC50 [5] [µM] | IC50 [6] [µM] | IC50 [7] [µM] | IC50 [8] [µM] | IC90 (S. aureus CECT 794) [µM] | IC90 (M. smegmatis DSMZ 43756) [µM] | IC90 (A. nidulans) [µM] | IC90 (C. albicans CECT 1394) [µM] | IC90 [9] [µM] | also measured
CC1C=CC2CC(C)(O)CC(C)C2C1/C=C/C=C/C(=O)O (centres unmarked) [TZA-E] | inhibitors of superoxide anion production | – | – | – | – | – | – | – | – | – | – | COIN activity on R388 conjugation (CF) ([1]; plate-conjugation assay): did not show significant COIN activity
Cc1ccc2c(c1/C=C/C=C/C(=O)O)C(C)CC(C)C2 (centres unmarked) [TZA-A, tanzawaic acid A] | inhibitors of superoxide anion production | 60 | 70 | 90 | 90 | 190 | 230 | 230 | > 230 | > 230 | > 100 | IC50 [3]: ~50 µM; COIN activity on R388 conjugation (CF) ([1]; plate-conjugation assay): inhibited R388 conjugation to levels similar to TZA-B; IC50 (Magnaporthe oryzae): 37 µM; activity against Brevibacillus brevis (Brevibacillus brevis): weak activity; activity against Mucor miehei (Mucor miehei): weak activity; activity against Paecilomyces variotii (Paecilomyces variotii): weak activity; activity against HeLaS3 cells (HeLaS3 cells): weak activity; effect on germination of Botrytis cinerea (Botrytis cinerea): not affected; effect on germination of Phytophthora infestans (Phytophthora infestans): not affected
CCCCC/C=C\C/C=C\CCCCCCCC(=O)O [Linoleic acid] | – | 90 | 180 | 90 | 180 | 300 | > 360 | 360 | > 360 | > 360 | > 100 | IC50 [10]: ~50 µM
CCCCCCCC/C=C\CCCCCCCC(=O)O [Oleic acid] | – | 40 | 180 | 80 | 180 | 350 | > 420 | > 420 | > 220 | > 220 | > 100 | IC50 [10]: ~50 µM
CC1CC(C)C2C(C=CC(C)C2C=CC=CC(=O)O)C1 (centres unmarked) [TZA-B, tanzawaic acid B] | inhibitor of superoxide anion production | 90 | 90 | 180 | 180 | 180 | 120 | 120 | > 230 | > 230 | > 100 | R388 conjugation (relative CF) ([3]; 0.4 mM, relative to control without COINs (100%)): 2%; IC50 [3]: ~50 µM; inhibition of conjugation ([1]; 0.4 mM, IncW plasmid R388): ~100 fold; R388 conjugation (relative CF) ([1]; 0.4 mM, plate-conjugation assay): 2 ± 2%; inhibition of conjugation [11]: ~100 fold; effect on conjugation (IncN plasmid conjugation): not affected; effect on conjugation (IncP plasmid conjugation): not affected; effect on mobilization (MF) (mobilization of CloDF13): affected; effect on mobilization (MF) (mobilization of ColE1; helper plasmid R388, pOX38 or R100-1): affected; effect on mobilization (MF) (mobilization of ColE1; helper plasmid pRL443): unaffected; effect on mobilization (MF) (mobilization of RSF1010): unaffected; antimicrobial activity, concentration below which no effect (Klebsiella pneumoniae): ≥ 364 µM; antimicrobial activity, concentration below which no effect (Bacillus cereus): ≥ 364 µM; antimicrobial activity, concentration below which no effect (Proteus mirabilis): ≥ 364 µM; antimicrobial activity, concentration below which no effect (Enterococcus faecalis): ≥ 364 µM; antimicrobial activity, concentration below which no effect (C. albicans): ≥ 364 µM; response of K562 cells (K562): no response; response of U937 cells (U937): no response; response of Jurkat cells (Jurkat): no response; response of Raji cells (Raji): no response
CCCCCCCCCCCCCCCC#CC(=O)O [2-ODA, 2-octadecynoic acid] | – | 90 | 70 | 180 | 150 | 90 | 350 | 7 | 220 | 220 | – | IC50 [12]: ~50 µM
CCCCCCCCCCCCCC#CC(=O)O [2-HDA, 2-hexadecynoic acid] | – | 40 | 40 | 80 | 100 | 100 | 30 | 8 | 8 | < 4 | – | IC50 [12]: ~50 µM
